Source: the CheMixHub viscosity set

Assay: xn = mol fraction of the nth substance listed

O=C1CCCCC1 + CC(=O)N(C)C
viscosity [mPa·s], 101 kPa
Settings	298.15 K	308.15 K	318.15 K
x1 = 0.1	1.024	0.873	0.75
x1 = 0.2001	1.095	0.907	0.76
x1 = 0.3001	1.182	0.956	0.782
x1 = 0.4001	1.28	1.018	0.823
x1 = 0.45	1.334	1.058	0.849
x1 = 0.4999	1.391	1.099	0.882
x1 = 0.5501	1.454	1.147	0.922
x1 = 0.5991	1.518	1.196	0.962
x1 = 0.7015	1.66	1.322	1.071
x1 = 0.7499	1.731	1.387	1.134
x1 = 0.7984	1.805	1.454	1.199
x1 = 0.8997	1.969	1.615	1.348

CC(C)CC(C)(C)C + CCCCCCCC
viscosity [mPa·s]
Settings	x1 = 0.2	x1 = 0.4	x1 = 0.5	x1 = 0.6	x1 = 0.8
293.15 K, 101 kPa	0.528	0.519	–	0.51	0.503
298.2 K, 100 kPa	–	–	0.4882	–	–
313.15 K, 101 kPa	0.421	0.415	–	0.408	0.403

O=P([O-])(O)O.[NH4+] + O
viscosity [mPa·s], 101 kPa
Settings	293.15 K	303.15 K	313.15 K	323.15 K
x1 = 0.017	1.312	1.049	0.855	0.71
x1 = 0.038	1.826	1.442	1.17	0.972
x1 = 0.063	–	2.196	1.749	1.438
x1 = 0.095	–	–	–	2.325
